# Reference: US9630894B2, “Energy efficient method and apparatus for the extraction of biomolecules from dilute aqueous solution” (DYNASEP INC., priority 2012, dated 2017)
# Entries after “also recorded” stand apart in the source; their conditions may differ.
# Legend:
# fermentation cultures [1] = assay: DME toxicity study: solvent production / metabolite analysis by HPLC; format: cell-based; conditions: for Acetate concentration / Acetoin concentration / Acetone concentration / Butanol concentration / Butyrate concentration / Ethanol concentration / Glucose concentration: 196 hours after inoculation
# Procedure: (§1) Toxicity studies were performed to determine the effects of DME on fermentation cultures. Cell growth, viability and solvent production were measured to determine what effect DME has on fermentation cultures. Cell growth was monitored by absorption measurements taken at 600 nm (A600). Viability was measured by counting the colony forming units (CFU) after 24 hours. Solvent production was quantified by HPLC.
# (§2) The first round of testing was performed using media that had been sparged with DME gas at 23° C. The amount of DME absorbed into the media was measured by weight gain after sparging. […] Two control cultures were also used for direct comparison of cultures with and without the presence of DME.
# A second round of testing was performed at lower DME concentrations. The concentration of DME varied from 0.7 wt. % to 2.9 wt. %. Cell densities were measured between 3 and 64 hours after inoculation. […] Based on the solvent measurements in Table 8 and Table 9 solvent production was also unaffected by DME at 0.7 wt. %. […] This is apparent after examination of the cell density and solvent production for samples 1-5, 2-1, 2-4 and 2-5 in comparison to the control samples 1-B and 2-B.
# fermentation cultures [2] = assay: DME toxicity study: viability by colony forming units (CFU) after 24 hours; format: cell-based
# Procedure: as §1, §2
# [3] = culture 2-1, weight % DME printed as ?
compound,measurement,setting,value
"COC [DME, dimethyl ether]",effect on solvent production,fermentation cultures [1]; DME at 0.7 wt. %,unaffected; also recorded: no noticeable effect
same,Metabolite conc. Final Acetate,"fermentation cultures [1]; culture 1-2, 3.48% DME",42.01 mM
same,Metabolite conc. Final Acetoin,"fermentation cultures [1]; culture 1-2, 3.48% DME",0.00 mM
same,Metabolite conc. Final Acetone,"fermentation cultures [1]; culture 1-2, 3.48% DME",0.00 mM
same,Metabolite conc. Final Butanol,"fermentation cultures [1]; culture 1-2, 3.48% DME",0.00 mM
same,Metabolite conc. Final Butyrate,"fermentation cultures [1]; culture 1-2, 3.48% DME",101.72 mM
same,Metabolite conc. Final Ethanol,"fermentation cultures [1]; culture 1-2, 3.48% DME",0.00 mM
same,Metabolite conc. Final Glucose,"fermentation cultures [1]; culture 1-2, 3.48% DME",410.70 mM
same,Acetate concentration,"fermentation cultures [1]; culture 1-2, DME 18.1 g/L",45.7 mM
same,Acetoin concentration,"fermentation cultures [1]; culture 1-2, DME 18.1 g/L",1.7 mM
same,Acetone concentration,"fermentation cultures [1]; culture 1-2, DME 18.1 g/L",4.9 mM
same,Butanol concentration,"fermentation cultures [1]; culture 1-2, DME 18.1 g/L",11.7 mM
same,Butyrate concentration,"fermentation cultures [1]; culture 1-2, DME 18.1 g/L",80.8 mM
same,Ethanol concentration,"fermentation cultures [1]; culture 1-2, DME 18.1 g/L",1.9 mM
same,Glucose concentration,"fermentation cultures [1]; culture 1-2, DME 18.1 g/L",381.5 mM
same,Metabolite conc. Final Acetate,"fermentation cultures [1]; culture 1-3, […] DME",47.46 mM
same,Metabolite conc. Final Acetoin,"fermentation cultures [1]; culture 1-3, […] DME",0.00 mM
same,Metabolite conc. Final Acetone,"fermentation cultures [1]; culture 1-3, […] DME",8.33 mM
same,Metabolite conc. Final Butanol,"fermentation cultures [1]; culture 1-3, […] DME",14.84 mM
same,Metabolite conc. Final Butyrate,"fermentation cultures [1]; culture 1-3, […] DME",89.52 mM
same,Metabolite conc. Final Ethanol,"fermentation cultures [1]; culture 1-3, […] DME",0.00 mM
same,Metabolite conc. Final Glucose,"fermentation cultures [1]; culture 1-3, […] DME",380.17 mM
same,Metabolite conc. Final Acetate,fermentation cultures [1]; [3],33.46 mM
same,Metabolite conc. Final Acetoin,fermentation cultures [1]; [3],0.00 mM
same,Metabolite conc. Final Acetone,fermentation cultures [1]; [3],0.00 mM
same,Metabolite conc. Final Butanol,fermentation cultures [1]; [3],0.00 mM
same,Metabolite conc. Final Butyrate,fermentation cultures [1]; [3],94.00 mM
same,Metabolite conc. Final Ethanol,fermentation cultures [1]; [3],0.00 mM
same,Metabolite conc. Final Glucose,fermentation cultures [1]; [3],432.02 mM
same,Metabolite conc. Final Acetate,"fermentation cultures [1]; culture 2-2, 3.92% DME",42.17 mM
same,Metabolite conc. Final Acetoin,"fermentation cultures [1]; culture 2-2, 3.92% DME",0.00 mM
same,Metabolite conc. Final Acetone,"fermentation cultures [1]; culture 2-2, 3.92% DME",0.00 mM
same,Metabolite conc. Final Butanol,"fermentation cultures [1]; culture 2-2, 3.92% DME",0.00 mM
same,Metabolite conc. Final Butyrate,"fermentation cultures [1]; culture 2-2, 3.92% DME",91.28 mM
same,Metabolite conc. Final Ethanol,"fermentation cultures [1]; culture 2-2, 3.92% DME",0.00 mM
same,Metabolite conc. Final Glucose,"fermentation cultures [1]; culture 2-2, 3.92% DME",418.43 mM
same,Acetone concentration,"fermentation cultures [1]; culture 2-2, DME 6.8 g/L",10.2 mM
same,Butanol concentration,"fermentation cultures [1]; culture 2-2, DME 6.8 g/L",23.6 mM
same,Butyrate concentration,"fermentation cultures [1]; culture 2-2, DME 6.8 g/L",55.7 mM
same,Ethanol concentration,"fermentation cultures [1]; culture 2-2, DME 6.8 g/L",3.8 mM
same,Metabolite conc. Final Acetate,"fermentation cultures [1]; culture 2-3, 3.72% DME",34.46 mM
same,Metabolite conc. Final Acetoin,"fermentation cultures [1]; culture 2-3, 3.72% DME","0,00 mM"
same,Metabolite conc. Final Acetone,"fermentation cultures [1]; culture 2-3, 3.72% DME",0.00 mM
same,Metabolite conc. Final Butyrate,"fermentation cultures [1]; culture 2-3, 3.72% DME",86.91 mM
same,Metabolite conc. Final Ethanol,"fermentation cultures [1]; culture 2-3, 3.72% DME",0.00 mM
same,Acetate concentration,"fermentation cultures [1]; culture 2-3, DME 6.6 g/L",44.6 mM
same,Acetoin concentration,"fermentation cultures [1]; culture 2-3, DME 6.6 g/L",5.6 mM
same,Acetone concentration,"fermentation cultures [1]; culture 2-3, DME 6.6 g/L",9.6 mM
same,Butanol concentration,"fermentation cultures [1]; culture 2-3, DME 6.6 g/L",21.6 mM
same,Butyrate concentration,"fermentation cultures [1]; culture 2-3, DME 6.6 g/L",57.3 mM
same,Ethanol concentration,"fermentation cultures [1]; culture 2-3, DME 6.6 g/L",3.8 mM
same,Glucose concentration,"fermentation cultures [1]; culture 2-3, DME 6.6 g/L",338.3 mM
same,Acetate concentration,"fermentation cultures [1]; culture 2-4, DME 29.1 g/L",42.5 mM
same,Acetoin concentration,"fermentation cultures [1]; culture 2-4, DME 29.1 g/L",0.0 mM
same,Acetone concentration,"fermentation cultures [1]; culture 2-4, DME 29.1 g/L",2.1 mM
same,Butanol concentration,"fermentation cultures [1]; culture 2-4, DME 29.1 g/L",3.7 mM
same,Butyrate concentration,"fermentation cultures [1]; culture 2-4, DME 29.1 g/L",94.8 mM
same,Ethanol concentration,"fermentation cultures [1]; culture 2-4, DME 29.1 g/L",0.0 mM
same,Glucose concentration,"fermentation cultures [1]; culture 2-4, DME 29.1 g/L",403.0 mM
same,Acetate concentration,"fermentation cultures [1]; culture 2-5, DME 27.9 g/L",41.7 mM
same,Acetoin concentration,"fermentation cultures [1]; culture 2-5, DME 27.9 g/L",0.0 mM
same,Acetone concentration,"fermentation cultures [1]; culture 2-5, DME 27.9 g/L",4.3 mM
same,Butanol concentration,"fermentation cultures [1]; culture 2-5, DME 27.9 g/L",7.2 mM
same,Butyrate concentration,"fermentation cultures [1]; culture 2-5, DME 27.9 g/L",94.5 mM
same,Ethanol concentration,"fermentation cultures [1]; culture 2-5, DME 27.9 g/L",0.0 mM
same,Glucose concentration,"fermentation cultures [1]; culture 2-5, DME 27.9 g/L",396.9 mM
same,effect on solvent production,"fermentation cultures [1]; cultures containing DME, 3 to 4 wt. %",greatly reduced
same,effect on cell viability (CFU),"fermentation cultures [2]; DME approximately 3 wt. %, cultures 1-2 and 1-3",not toxic
same,effect on cell viability (CFU),"fermentation cultures [2]; DME approximately 4 wt. %, second set of cultures",toxicity issues
same,CFU/ml after 24 hours,"fermentation cultures [2]; culture 1-1, […] DME",770 CFU/ml
